Results as given in ChEMBL document CHEMBL5625261, “Cytotoxic effects of kinetin riboside and its selected analogues on cancer cell lines” (Bioorg Med Chem Lett, 2024).

Assays:
[1] = Antiproliferative activity against human HEK cells assessed as cell growth inhibition incubated for 72 hrs by Beckman Coulter counting method; type: toxicity, cell-based
Caco-2 [2] = experiment: Cytotoxicity against human Caco-2 cells assessed as reduction in cell viability incubated for 72 hrs by MTT assay; type: functional, cell-based; details: Caco-2, 72 h
[3] = Cytotoxicity against human MRC5 cells assessed as reduction in cell viability incubated for 48 hrs by MTT assay; type: toxicity, cell-based
OVCAR-3 [4] = experiment: Cytotoxicity against human OVCAR-3 cells assessed as reduction in cell viability incubated for 24 hrs by MTT assay; type: functional, cell-based; details: OVCAR-3, 24 h
HeLa [5] = experiment: Antiproliferative activity against human HeLa cells assessed as cell growth inhibition incubated for 72 hrs by Calcein AM staining based fluorescence assay; type: functional
G-361 = experiment: Antiproliferative activity against human G361 cells assessed as cell growth inhibition incubated for 72 hrs by Beckman Coulter counting method; type: functional, cell-based; details: G-361, 72 h
[6] = Antiproliferative activity against human HS27 cells assessed as cell growth inhibition incubated for 72 hrs by Beckman Coulter counting method; type: toxicity, cell-based
HT-29 = experiment: Antiproliferative activity against human HT-29 cells assessed as cell growth inhibition incubated for 72 hrs by Beckman Coulter counting method; type: functional, cell-based; details: HT-29, 72 h
LOX IMVI = experiment: Antiproliferative activity against human LOX IMVI cells assessed as cell growth inhibition incubated for 72 hrs by Beckman Coulter counting method; type: functional, cell-based
MCF7 [7] = experiment: Cytotoxicity against human MCF7 cells assessed as reduction in cell viability incubated for 48 hrs by MTT assay; type: functional, cell-based; details: MCF7, 48 h
MIA PaCa-2 [8] = experiment: Cytotoxicity against human MIA PaCa-2 cells assessed as reduction in cell viability incubated for 24 hrs by MTT assay; type: functional, cell-based; details: MIA PaCa-2, 24 h
A549 = experiment: Antiproliferative activity against human A549 cells assessed as cell growth inhibition incubated for 48 hrs by MTT assay; type: functional, cell-based; details: A549, 48 h
MCF7 [9] = experiment: Cytotoxicity against human MCF7 cells assessed as reduction in cell viability incubated for 24 hrs by MTT assay; type: functional, cell-based; details: MCF7, 24 h
HeLa [10] = experiment: Cytotoxicity against human HeLa cells assessed as reduction in cell viability at 100 uM incubated for 24 hrs by MTT assay relative to control; type: functional
HeLa [11] = experiment: Cytotoxicity against human HeLa cells assessed as reduction in cell viability incubated for 24 hrs by MTT assay; type: functional, cell-based
Caco-2 [12] = experiment: Cytotoxicity against human Caco-2 cells assessed as reduction in cell viability incubated for 24 hrs by MTT assay; type: functional, cell-based; details: Caco-2, 24 h
M4Beu cell line = experiment: Cytotoxicity against human M4Beu cell line assessed as inhibition of cell growth incubated for 14 days by crystal violet staining based assay; type: functional; details: 336 h
MIA PaCa-2 [13] = experiment: Cytotoxicity against human MIA PaCa-2 cells assessed as reduction in cell viability incubated for 48 hrs by MTT assay; type: functional, cell-based; details: MIA PaCa-2, 48 h
OVCAR-3 [14] = experiment: Cytotoxicity against human OVCAR-3 cells assessed as reduction in cell viability incubated for 48 hrs by MTT assay; type: functional, cell-based; details: OVCAR-3, 48 h
HL-60 [15] = experiment: Antiproliferative activity against human HL-60 cells assessed as cell growth inhibition incubated for 72 hrs by Calcein AM staining based fluorescence assay; type: functional; details: HL-60, 72 h
B16 = experiment: Cytotoxicity against mouse B16 cells assessed as inhibition of cell growth incubated for 10 days by crystal violet staining based assay; type: functional; details: B16, 240 h
HeLa [16] = experiment: Cytotoxicity against human HeLa cells assessed as reduction in cell viability incubated for 72 hrs by MTT assay; type: functional, cell-based
OVCAR-3 [17] = experiment: Cytotoxicity against human OVCAR-3 cells assessed as reduction in cell viability incubated for 72 hrs by MTT assay; type: functional, cell-based; details: OVCAR-3, 72 h
DU-145 = experiment: Antiproliferative activity against human DU-145 cells assessed as reduction in cell viability incubated for 48 to 96 hrs by crystal violet staining assay; type: functional; details: time 48-96 hrs
MIA PaCa-2 [18] = experiment: Antiproliferative activity against human MIA PaCa-2 cells assessed as cell growth inhibition incubated for 72 hrs by Beckman Coulter counting method; type: functional, cell-based; details: MIA PaCa-2, 72 h
[19] = Cytotoxicity against human MRC5 cells assessed as reduction in cell viability incubated for 72 hrs by MTT assay; type: toxicity, cell-based
HCT-116 = experiment: Antiproliferative activity against human HCT-116 cells assessed as cell growth inhibition incubated for 72 hrs by Beckman Coulter counting method; type: functional, cell-based; details: HCT-116, 72 h
A-375 = experiment: Antiproliferative activity against human A-375 cells assessed as cell growth inhibition incubated for 72 hrs by Beckman Coulter counting method; type: functional, cell-based; details: A-375, 72 h
MRC5 = experiment: Cytotoxicity against human MRC5 cells assessed as reduction in cell viability at 100 uM incubated for 24 hrs by MTT assay relative to control; type: toxicity, cell-based; details: mrc5, 24 h
MIA PaCa-2 [20] = experiment: Cytotoxicity against human MIA PaCa-2 cells assessed as reduction in cell viability incubated for 72 hrs by MTT assay; type: functional, cell-based; details: MIA PaCa-2, 72 h
Caco-2 [21] = experiment: Cytotoxicity against human Caco-2 cells assessed as reduction in cell viability incubated for 48 hrs by MTT assay; type: functional, cell-based; details: Caco-2, 48 h
MCF7 [22] = experiment: Cytotoxicity against human MCF7 cells assessed as reduction in cell viability incubated for 72 hrs by MTT assay; type: functional, cell-based; details: MCF7, 72 h
HL-60 [23] = experiment: Cytotoxicity against human HL-60 cells assessed as inhibition of cell growth incubated for 5 days; type: functional, cell-based; details: HL-60, 120 h
HeLa [24] = experiment: Cytotoxicity against human HeLa cells assessed as reduction in cell viability incubated for 48 hrs by MTT assay; type: functional, cell-based
[25] = Cytotoxicity against human MRC5 cells assessed as reduction in cell viability incubated for 24 hrs by MTT assay; type: toxicity, cell-based
[26] = Antiproliferative activity against human PZ-HPV-7 cells assessed as reduction in cell viability incubated for 48 to 96 hrs by crystal violet staining assay; type: toxicity, cell-based; details: time 48-96 hrs
MCF7 [27] = experiment: Cytotoxicity against human MCF7 cells assessed as reduction in cell viability at 100 uM incubated for 24 hrs by MTT assay relative to control; type: functional
MCF7 [28] = experiment: Antiproliferative activity against human MCF7 cells assessed as cell growth inhibition incubated for 72 hrs by Calcein AM staining based fluorescence assay; type: functional; details: MCF7, 72 h
HCT-15 = experiment: Antiproliferative activity against human HCT-15 cells assessed as cell growth inhibition incubated for 4 days by SRB assay; type: functional, cell-based; details: HCT-15, 96 h
CCRF-CEM = experiment: Antiproliferative activity against human CEM cells assessed as cell growth inhibition incubated for 72 hrs by Calcein AM staining based fluorescence assay; type: functional

Molecule `OC[C@H]1O[C@@H](n2cnc3c(NCc4ccco4)ncnc32)[C@H](O)[C@@H]1O` [KINETIN RIBOSIDE] has an IC50 at 72 h [1] of 110 nM, an IC50 (Caco-2 [2]) of 23500 nM and an IC50 at 48 h [3] of 2500 nM. For the same molecule, the IC50 (OVCAR-3 [4]) was over 100000 nM, the IC50 (HeLa [5]) was 4300 nM and the IC50 (G-361) was 160 nM. The IC50 at 72 h [6] was 180 nM, the IC50 (HT-29) was 160 nM and the IC50 (LOX IMVI) was 160 nM. The IC50 (MCF7 [7]) was 2800 nM, the IC50 (MIA PaCa-2 [8]) was over 100000 nM and the IC50 (A549) was 10500 nM. It also gave an IC50 (MCF7 [9]) of 16100 nM, an Activity (HeLa [10]) of about 30% and an IC50 (HeLa [11]) of over 100000 nM. It also gave an IC50 (Caco-2 [12]) of 88000 nM, an IC50 (M4Beu cell line) of 1500 nM and an IC50 (MIA PaCa-2 [13]) of 3100 nM. It also gave an IC50 (OVCAR-3 [14]) of 7800 nM, an IC50 (HL-60 [15]) of 800 nM and an IC50 (B16) of 200 nM. For the same molecule, the IC50 (HeLa [16]) was over 100000 nM, the IC50 (OVCAR-3 [17]) was 3100 nM and the Activity (DU-145) was 35%. The IC50 (MIA PaCa-2 [18]) was 160 nM, the IC50 at 72 h [19] was 1700 nM and the IC50 (HCT-116) was 160 nM. For the same molecule, the IC50 (A-375) was 160 nM, the Activity (MRC5) was ~ 80% and the IC50 (MIA PaCa-2 [20]) was 2600 nM. For the same molecule, the IC50 (Caco-2 [21]) was 42000 nM, the IC50 (MCF7 [22]) was 2700 nM and the IC50 (HL-60 [23]) was 980 nM. The IC50 (HeLa [24]) was over 100000 nM, the IC50 at 24 h [25] was 18000 nM and the Activity [26] was 85%. For the same molecule, the Activity (MCF7 [27]) was about 80%, the IC50 (MCF7 [28]) was 4300 nM and the IC50 (HCT-15) was 12300 nM. It also gave an IC50 (CCRF-CEM) of 1600 nM.
